Measured values as given in patent publication US20090035394A1, “USE OF DNA-PK INHIBITION TO SENSITISE ATM DEFICIENT CANCERS TO DNA-DAMAGING CANCER THERAPIES” (priority 2005, published 2009).

Columns and labels:
[1] = tested on: pEBS7-YZ5 (ATM-competent, ATM+/+) cells; experiment: Chemopotentiation, sulforhodamine B growth assay in 96 well plates; format: cell-based, human; conditions: for % survival / Avg (absorbance at 564 nm): no inhibitor, pEBS7-YZ; for PF50 (potentiation factor at 50% cell kill): damaging agent without / with KU-0060648 (0.5 μM), pEBS7-YZ (ATM-competent)
Protocol: (§1) The A-T fibroblast AT221JE-T cells (pEBS7, herein referred to as ATM-null cells) and the trans-complemented ATM+/+ (pEBS7-YZ5, herein referred to as ATM-competent cells) were grown in DMEM+20% FBS PSG and 100 ug/ml hygromycin. These cells are immortalised fibroblasts from an A-T patient which were transfected with pEBS7-YZ5 vector coding for full length ATM and the hygromycin resistance marker or pEBS7 vector, coding for the hygromycin resistance marker only. (Ziv Y et al (1997) Oncogene 15, 159-67)
(§2) Following a 4-hour incubation to allow cell adherence, 5 μl DNA-PKcS inhibitor KU-0060648 (final concentration 0.5 μM) or DMSO/PBS equivalent was added. After a further 1 hour incubation, 5 μl of chemotherapeutic drug was added per well (see table 1). Drugs were removed after 16 hours and 150 μl fresh medium added per well. After 24h, one plate for each cell line was fixed and stained to account for background differences between the lines. Five days after seeding, the medium was aspirated from the wells of the remaining assay plates and 100 μl ice cold 10% TCA added for 30 minutes at 4° C. The wells were then washed four times with tap water and 50 μl 0.4% sulforhodamine B in 1% acetic acid added per well. After 15 minutes incubation at room temperature, excess stain was washed from the wells with 1% acetic acid. 100 μl […] pH6.8 was then added per well, the plates shaken to resuspend the stain and the absorbance at 564 nm determined.

pEBS7 (ATM-null) cells = experiment: as above; format: cell-based, human; conditions: for % survival / Avg (absorbance at 564 nm): no inhibitor, pEBS7; for PF50 (potentiation factor at 50% cell kill): damaging agent without / with KU-0060648 (0.5 μM), pEBS7 (ATM-null)
Protocol: as §1, §2

[2] = Con: etoposide 0.01 (μg/ml per Table 1)
[3] = Con: etoposide 0.025 (μg/ml per Table 1)
[4] = Con: etoposide 0.05 (μg/ml per Table 1)
[5] = Con: etoposide 0.075 (μg/ml per Table 1)
[6] = Con: etoposide 0.1 (μg/ml per Table 1)
[7] = Con: etoposide 0.25 (μg/ml per Table 1)
[8] = Con: etoposide 0.5 (μg/ml per Table 1)
[9] = Con: etoposide 0.75 (μg/ml per Table 1)
[10] = Con: etoposide 1 (μg/ml per Table 1)
[11] = Con: etoposide 2.5 (μg/ml per Table 1)
[12] = Con: etoposide 5 (μg/ml per Table 1)
[13] = Con: doxorubicin 0.01 (unit not given)
[14] = Con: doxorubicin 0.025 (unit not given)
[15] = Con: doxorubicin 0.05 (unit not given)
[16] = Con: doxorubicin 0.075 (unit not given)
[17] = Con: doxorubicin 0.1 (unit not given)
[18] = Con: doxorubicin 0.25 (unit not given)
[19] = Con: doxorubicin 0.5 (unit not given)
[20] = Con: doxorubicin 0.75 (unit not given)
[21] = Con: doxorubicin 1 (unit not given)
[22] = Con: doxorubicin 2.5 (unit not given)
[23] = Con: doxorubicin 5 (unit not given)

COc1cc([C@@H]2c3cc4c(cc3[C@@H](O[C@@H]3O[C@@H]5CO[C@@H](C)O[C@H]5[C@H](O)[C@H]3O)[C@H]3COC(=O)[C@H]23)OCO4)cc(OC)c1O [Etoposide, etoposide, reference compound]
% survival [1, 2]: 103.9% | Avg (absorbance at 564 nm) [1, 2]: 1.74 | % survival [1, 3]: 93.1% | Avg (absorbance at 564 nm) [1, 3]: 1.56 | % survival [1, 4]: 94.1% | Avg (absorbance at 564 nm) [1, 4]: 1.58 | % survival [1, 5]: 96.6% | Avg (absorbance at 564 nm) [1, 5]: 1.62 | % survival [1, 6]: 104.2% | Avg (absorbance at 564 nm) [1, 6]: 1.75 | % survival [1, 7]: 95.8% | Avg (absorbance at 564 nm) [1, 7]: 1.60 | % survival [1, 8]: 95.0% | Avg (absorbance at 564 nm) [1, 8]: 1.59 | % survival [1, 9]: 75.1% | Avg (absorbance at 564 nm) [1, 9]: 1.26 | % survival [1, 10]: 32.4% | Avg (absorbance at 564 nm) [1, 10]: 0.54 | % survival [1, 11]: 39.0% | Avg (absorbance at 564 nm) [1, 11]: 0.65 | % survival [1, 12]: 21.7% | Avg (absorbance at 564 nm) [1, 12]: 0.36 | PF50 (potentiation factor at 50% cell kill) [1]: 1.7 | % survival (pEBS7 (ATM-null) cells; [2]): 84.6% | Avg (absorbance at 564 nm) (pEBS7 (ATM-null) cells; [2]): 1.38 | % survival (pEBS7 (ATM-null) cells; [3]): 84.9% | Avg (absorbance at 564 nm) (pEBS7 (ATM-null) cells; [3]): 1.38 | % survival (pEBS7 (ATM-null) cells; [4]): 89.0% | Avg (absorbance at 564 nm) (pEBS7 (ATM-null) cells; [4]): 1.45 | % survival (pEBS7 (ATM-null) cells; [5]): 90.8% | Avg (absorbance at 564 nm) (pEBS7 (ATM-null) cells; [5]): 1.48 | % survival (pEBS7 (ATM-null) cells; [6]): 80.6% | Avg (absorbance at 564 nm) (pEBS7 (ATM-null) cells; [6]): 1.31 | % survival (pEBS7 (ATM-null) cells; [7]): 66.8% | Avg (absorbance at 564 nm) (pEBS7 (ATM-null) cells; [7]): 1.09 | % survival (pEBS7 (ATM-null) cells; [8]): 53.0% | Avg (absorbance at 564 nm) (pEBS7 (ATM-null) cells; [8]): 0.86 | % survival (pEBS7 (ATM-null) cells; [9]): 15.8% | Avg (absorbance at 564 nm) (pEBS7 (ATM-null) cells; [9]): 0.26 | % survival (pEBS7 (ATM-null) cells; [10]): 2.5% | Avg (absorbance at 564 nm) (pEBS7 (ATM-null) cells; [10]): 0.04 | % survival (pEBS7 (ATM-null) cells; [11]): 1.2% | Avg (absorbance at 564 nm) (pEBS7 (ATM-null) cells; [11]): 0.02 | % survival (pEBS7 (ATM-null) cells; [12]): −1.6% | Avg (absorbance at 564 nm) (pEBS7 (ATM-null) cells; [12]): −0.03 | PF50 (potentiation factor at 50% cell kill) (pEBS7 (ATM-null) cells): 6.5

COc1cccc2c1C(=O)c1c(O)c3c(c(O)c1C2=O)C[C@@](O)(C(=O)CO)C[C@@H]3O[C@H]1C[C@H](N)[C@H](O)[C@H](C)O1 [Doxorubicin, doxorubicin, reference compound]
% survival [1, 13]: 88.3% | Avg (absorbance at 564 nm) [1, 13]: 1.43 | % survival [1, 14]: 89.4% | Avg (absorbance at 564 nm) [1, 14]: 1.45 | % survival [1, 15]: 87.3% | Avg (absorbance at 564 nm) [1, 15]: 1.42 | % survival [1, 16]: 94.1% | Avg (absorbance at 564 nm) [1, 16]: 1.53 | % survival [1, 17]: 103.9% | Avg (absorbance at 564 nm) [1, 17]: 1.69 | % survival [1, 18]: 95.3% | Avg (absorbance at 564 nm) [1, 18]: 1.55 | % survival [1, 19]: 53.4% | Avg (absorbance at 564 nm) [1, 19]: 0.87 | % survival [1, 20]: 33.2% | Avg (absorbance at 564 nm) [1, 20]: 0.54 | % survival [1, 21]: 8.8% | Avg (absorbance at 564 nm) [1, 21]: 0.14 | % survival [1, 22]: −1.7% | Avg (absorbance at 564 nm) [1, 22]: −0.03 | % survival [1, 23]: −2.6% | Avg (absorbance at 564 nm) [1, 23]: −0.04 | PF50 (potentiation factor at 50% cell kill) [1]: 1.5 | % survival (pEBS7 (ATM-null) cells; [13]): 111.8% | Avg (absorbance at 564 nm) (pEBS7 (ATM-null) cells; [13]): 1.46 | % survival (pEBS7 (ATM-null) cells; [14]): 117.0% | Avg (absorbance at 564 nm) (pEBS7 (ATM-null) cells; [14]): 1.53 | % survival (pEBS7 (ATM-null) cells; [15]): 106.4% | Avg (absorbance at 564 nm) (pEBS7 (ATM-null) cells; [15]): 1.39 | % survival (pEBS7 (ATM-null) cells; [16]): 113.1% | Avg (absorbance at 564 nm) (pEBS7 (ATM-null) cells; [16]): 1.47 | % survival (pEBS7 (ATM-null) cells; [17]): 111.2% | Avg (absorbance at 564 nm) (pEBS7 (ATM-null) cells; [17]): 1.45 | % survival (pEBS7 (ATM-null) cells; [18]): 63.8% | Avg (absorbance at 564 nm) (pEBS7 (ATM-null) cells; [18]): 0.83 | % survival (pEBS7 (ATM-null) cells; [19]): 37.3% | Avg (absorbance at 564 nm) (pEBS7 (ATM-null) cells; [19]): 0.49 | % survival (pEBS7 (ATM-null) cells; [20]): 12.6% | Avg (absorbance at 564 nm) (pEBS7 (ATM-null) cells; [20]): 0.16 | % survival (pEBS7 (ATM-null) cells; [21]): −0.9% | Avg (absorbance at 564 nm) (pEBS7 (ATM-null) cells; [21]): −0.01 | % survival (pEBS7 (ATM-null) cells; [22]): −2.6% | Avg (absorbance at 564 nm) (pEBS7 (ATM-null) cells; [22]): −0.03 | % survival (pEBS7 (ATM-null) cells; [23]): −3.6% | Avg (absorbance at 564 nm) (pEBS7 (ATM-null) cells; [23]): −0.05 | PF50 (potentiation factor at 50% cell kill) (pEBS7 (ATM-null) cells): 2.3
